System: HCT116-C9
Assay: Gene expression analysis using DNA microarray (GeneChip Hu6800)
Assay type: cell-based, human
Procedure: All cells were cultured in RPMI-1640 medium supplemented with 10% of fetal bovine serum, 100 units/ml of penicillin and 100 μg/ml of streptomycin at 37° C. under 5% CO2.
E7070, or ER-35748 or ER-68487 represented by the structural formula shown below was added to the media of an E7070-susceptible strain HCT116-C9 and an E7070-resistant strain HCT116-C9-C1 at a concentration of 8 μM and the cells were cultured. Then, cells were recovered after 0, 3, 6 and 12 hours. Further, the cells were also cultured for 12 hours without adding the drug and recovered.
Total RNA was extracted from these cells and subjected to the subsequent analyses. The RNA extracted from the cells cultured for 12 hours with the drug and the RNA from extracted the cells cultured for 12 hours without the drug were used for the gene expression analysis using a DNA microarray described in Example 2. HCT116-C9 was a substrain isolated from HCT116 derived from human colon cancer (American Type Culture Collection, Manassas, Va., U.S.A.), and HCT116-C9-C1 was an E7070-resistant substrain obtained by culturing this HCT116-C9 in the presence of E7070 with gradually increasing the E7070 concentration.
Total RNA was extracted from the recovered cells by using TRIZOL Reagent (Life Technologies Oriental) according to the attached operation manual.
Each RNA obtained in Example 1 was dissolved in 100 μl of sterilized water treated with diethyl pyrocarbonate (DEPC) and further purified by using RNeasy Column (QIAGEN), and double-stranded cDNA was synthesized by using SuperScript Choice System (Life Technologies Oriental) and a T7-d(T)24 primer.
First, to 10 μg of RNA, 5 μM T7-d(T)24 primer, 1×First strand buffer, 10 mM DTT, 500 μM dNTP mix and 20 units/μl of SuperScript II Reverse Transcriptase were added and the mixture was allowed to react at 42° C. for 1 hour to synthesize single-stranded DNA. Subsequently, to the DNA, 1×Second strand buffer, 200 μM dNTP mix, 67 U/ml of DNA ligase, 270 U/ml of DNA polymerase I and 13 U/ml of RNase H were added and the mixture was allowed to react at 16° C. for 2 hours to synthesize double-stranded cDNA. Further, to the cDNA, 67 U/ml of T4 DNA polymerase I was added and the mixture was allowed to react at 16° C. for 5 minutes and then 10 μl of 0.5 M EDTA was added to terminate the reaction.
The obtained cDNA was purified with phenol/chloroform, and a labeling reaction with biotinylated UTP and CTP was carried out by using RNA Transcript Labeling Kit (Enzo Diagnostics) according to the attached operation manual. The reaction product was purified with Rneasy Column and heated in 200 mM Tris/acetate buffer (pH 8.1), 150 mM magnesium acetate, 50 mM potassium acetate at 94° C. for 35 minutes to obtain fragment cRNA.
The fragmented cRNA was hybridized with GeneChip Hu6800 (Affymetrix) in 100 mM MES, 1 M sodium salt, 20 mM EDTA and 0.01% Tween 20 at 45° C. for 16 hours. After the hybridization, the GeneChip was washed and stained according to the protocol EukGE-WS2 attached to Affymetrix Fluidics Station. For the staining, streptavidin-phycoerythrin and biotinylated goat anti-streptavidin antibody were used. The stained GeneChip was scanned by using HP Argon Ion Laser Confocal Scanner (Hewlett Packard) to measure its fluorescence intensity. The fluorescence was measured at 570 nm by using an excitation light at 488 nm.
The quantitative data analyses were all conducted by using GeneChip Software (Affymetrix). To quantify RNA, an average of “differences [(Perfect match hybridization signal)−(Mismatch signal)]” was obtained for each probe family.
E7070, or ER-35748 or ER-68487 was added to a medium for HCT116-C9 at a concentration of 8 μM and culture was performed. The results of analysis of RNA extracted from the cells at 12 hours by using GeneChip were compared with the results of RNA analysis for HCT116-C9 cells obtained in the same manner except for not adding the drug. […]

[1] = HCT116-C9, 8 μM, 12 hours, compared with cells without drug, change of 1.8 times or more counted

NS(=O)(=O)c1ccc(S(=O)(=O)Nc2cccc3c(Cl)c[nH]c23)cc1 [E7070, N-(3-chloro-7-indolyl)-1,4-benzenedisulfonamide]
enhancement of expression of the genes listed in Table 3 (HCT116-C9, 8 μM for 12 hours): ≥ 1.8 times | inhibition of expression of the genes listed in Table 4 (HCT116-C9, 8 μM for 12 hours): ≥ 1.8 times | expression levels of the genes listed in Table 1 [1]: increased | expression levels of the genes listed in Table 2 [1]: decreased
